Test results from PubChem BioAssay (NCI).
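48-hour exposure; five concentrations; linearly interpolated endpoints. GI50: concentration for 50% inhibition of growth. TGI: total growth inhibition.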

Columns and labels:
Experiment in all cases: NCI tumour cell line growth inhibition, 48 h
[1] = tested on: NCI-H460 lung
[2] = tested on: MDA-MB-231 breast
[3] = tested on: HT29 colon
[4] = tested on: LOX IMVI melanoma
[5] = tested on: RPMI-8226 leukemia
[6] = tested on: OVCAR-5 ovarian
[7] = tested on: COLO 205 colon
[8] = tested on: CCRF-CEM leukemia
[9] = tested on: RXF 393 renal
[10] = tested on: A549 NSCLC

Compound	GI50 [1] [µM]	TGI [1] [µM]	GI50 [2] [µM]	TGI [2] [µM]	GI50 [3] [µM]	TGI [3] [µM]	GI50 [4] [µM]	TGI [4] [µM]	GI50 [5] [µM]	TGI [5] [µM]	GI50 [6] [µM]	TGI [6] [µM]	GI50 [7] [µM]	TGI [7] [µM]	GI50 [8] [µM]	TGI [8] [µM]	TGI [9] [µM]	TGI [10] [µM]	GI50 [9] [µM]	GI50 [10] [µM]
CN(C)CCCN1c2nc3ccccc3cc2Sc2cc3ccccc3nc21	1.6	3.13	1.41	2.75	1.18	5.1	1.55	3.16	0.45	2.08	1.54	2.97	1.24	2.82	1.12	2.55				
O=C1C[C@@H]2C(COC(=O)c3ccccc3)N(OCc3ccccc3)C[C@@H]2O1 (stereo not given in full)		> 100				> 100		> 100				> 100		> 100		> 100	> 100	> 100		
N=c1nnc(=O)c2c(s1)-n1ncc(C(=O)O)c1NN2						> 100				> 100		> 100		> 100			> 100	> 100		
Cc1c(C(=O)c2ccccc2C(=O)O)c2ccccc2n1C		> 100				> 100				> 100		> 100				> 100	> 100	> 100		
C=C=C(CC)C(C(=O)OC)N(CC)CC (stereo not given)		> 100				> 100		> 100		> 100				> 100		> 100	> 100	> 100		
CC(=O)O[C@H]1CC[C@@]2(C)C(=CC[C@H]3C4=CC=C(C(C)=O)[C@@]4(C)CCC32)C1 (stereo not given in full)		> 100				> 100		43.8		> 100		> 100		39.6		> 100	63.7	> 100		
COc1cccc(C(=O)N2CCc3ccccc32)c1OC		> 100				> 100		> 100		> 100		> 100		> 100		> 100	> 100	> 100		
CCCCCCCC(=O)OC(CBr)COC(=O)C(C)(C)C (stereo not given)		> 100				> 100		> 100		> 71.2		> 100		> 100		> 87.2	> 100	> 100		
CCC(=O)C(C)C1=Nc2nnc(CCCCCCCc3nnc4n3C(=O)C(C(C)C(=O)CC)=N4)n2C1=O (stereo not given)		> 100				> 100		> 100		> 100		> 100		> 100		> 100	> 100	> 100		
Cc1nc2ccc(Nc3nc(NCCN4CCOCC4)nc(Nc4ccc(F)cc4)n3)cc2n1Cc1ccccc1	3.59	13.2	1.71	3.71					1.74	4.62	2.71	13.6	1.62	3.13	2.27	8.04	4.07	> 100	1.59	3.69
COC1OC(CO)C(O)C(O)C1Br (stereo not given)		> 100				> 100		> 100		> 100		> 100		> 100		> 100	> 100	> 100		
CC1=C[C@H]2c3c(c(O)c(O)c4oc5ccccc5c(=O)c34)[C@H](c3cc(O)c(O)c4oc5ccccc5c(=O)c34)[C@H]2C(C)(C)C1	0.22	1.83	2.9	19.1	0.86	13.8	0.451	1.76			3.18	14.7	2.8	9.73	0.609	> 100	2.52	4.91	0.42	0.276
O=c1cc2ccccc2nn1Cc1ccccc1Cl		> 100				> 100		> 100		> 100		> 100		> 100		> 100		> 100		
CN(CN1C(=O)C2Cc3ccccc3CN2C1=O)c1ccccn1 (stereo not given)		> 100						> 100		> 100		> 100		> 100		> 100		> 100		
O=C(O)/C(=C/c1c(O)ccc2ccccc12)c1csc(-c2nc(/C(=C\c3c(O)ccc4ccccc34)C(=O)O)cs2)n1		49.1				52.2		43.4		43.8		31.9		31.4		31.4	14	55.5		
C1CCN(c2nsc(N3CCCCC3)n2)CC1		> 100				> 100		> 100		> 100		> 100				> 100	> 100	> 100		
CN1c2ccccc2N(C)C2C1N(C)c1ccccc1N2C (stereo not given)		> 100				> 100				62.9		> 100		29.4		9.73	32.6	> 100		
COc1cc2noc(-c3ccccc3)c2cc1OC		> 100				> 100		> 100		56.7		94		> 100		> 100	73.8	> 100		
CC(=O)OCCOCNC(=S)N/N=C(\C)c1cnc2ccccc2n1		> 100				> 100		> 100		> 100		61.3		36.9		90.2	> 100	> 100		
Cc1nc2c(n1C(C)(C)C)C(=O)c1ccccc1C2=O		> 100				> 100		> 100						> 100		> 100	> 100	> 100		
C(CCC[Te][Te]CCCCCCOC1CCCCO1)CCOC1CCCCO1 (stereo not given)		30				25.6		35.1				33.4		36.5		41.4		41.5		
O=C(Nc1nc2ccccc2n1Cc1ccccc1)NC12CC3CC(CC(C3)C1)C2		> 100				> 100		> 100		> 100		> 100		> 100		> 100	93.8	> 100		
